Measurements from US12496301B2, “Use of androgen receptor degrader for the treatment of spinal and bulbar muscular atrophy” (Arvinas Operations, Inc., priority 2023, dated 2025).

Target: T1, endogenous AR (Mus musculus, UniProt P19091)
T1 construct: from tissue; host or cells: mouse LABC muscle (C57Bl/6 and hAR100Q mice); quadriceps (hAR100Q mice)
T1 sequence (P19091 1-899): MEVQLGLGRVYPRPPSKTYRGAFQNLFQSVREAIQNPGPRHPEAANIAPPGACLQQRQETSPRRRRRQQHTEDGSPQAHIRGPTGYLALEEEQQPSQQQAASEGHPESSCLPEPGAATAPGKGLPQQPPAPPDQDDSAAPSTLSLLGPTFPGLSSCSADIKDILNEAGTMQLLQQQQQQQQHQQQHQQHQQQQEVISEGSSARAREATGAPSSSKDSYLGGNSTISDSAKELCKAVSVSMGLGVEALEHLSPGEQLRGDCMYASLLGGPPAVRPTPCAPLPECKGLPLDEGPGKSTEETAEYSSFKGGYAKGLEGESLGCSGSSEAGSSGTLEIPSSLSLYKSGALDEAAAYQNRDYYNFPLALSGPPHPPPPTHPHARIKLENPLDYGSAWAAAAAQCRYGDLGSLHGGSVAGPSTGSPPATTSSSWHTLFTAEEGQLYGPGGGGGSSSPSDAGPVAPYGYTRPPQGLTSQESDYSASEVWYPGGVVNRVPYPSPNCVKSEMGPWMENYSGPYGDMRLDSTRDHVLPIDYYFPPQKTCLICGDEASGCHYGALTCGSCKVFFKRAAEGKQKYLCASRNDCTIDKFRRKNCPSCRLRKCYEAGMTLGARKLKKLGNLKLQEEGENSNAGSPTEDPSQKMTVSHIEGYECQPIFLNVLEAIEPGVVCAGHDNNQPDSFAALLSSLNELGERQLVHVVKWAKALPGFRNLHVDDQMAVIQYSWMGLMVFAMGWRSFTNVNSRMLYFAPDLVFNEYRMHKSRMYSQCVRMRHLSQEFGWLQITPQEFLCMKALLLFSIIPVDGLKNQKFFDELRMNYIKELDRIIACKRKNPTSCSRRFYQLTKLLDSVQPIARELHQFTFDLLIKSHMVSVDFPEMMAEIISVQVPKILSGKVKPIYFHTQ
Assay: In vivo AR degradation in LABC muscle of C57Bl/6 mice (mouse AR ELISA), PK/PD
Description: Using six- to eight-week-old C57Bl/6 male mice, chow and water were provided ad libitum. Compounds were administered by oral gavage at the indicated dose using 5% dimethyl sulfoxide (DMSO), 95% (2% Tween 80, PEG 400) as the vehicle. Mice were euthanized by using Isoflurane inhalation (2-4% induction) followed by decapitation 24 hours post dose unless otherwise indicated. The levator ani/bulbocavernosus (LABC) muscle was dissected and immediately snap frozen and stored at −80° C. prior to analysis. Compound exposure was measured in serum and muscle lysates.
Anti-androgen receptor rabbit polyclonal antibody, clone PG-21 (Millipore; 06-680), was diluted in BupH carbonate-bicarbonate buffer (Thermo; 28382) to a concentration of 2 μg/mL and coated onto 96-well ELISA plates by incubating 50 μL per well overnight at 37° C. Plates were washed 4× with tris-buffered saline (TBS) buffer containing 0.1% Tween-20 (TBS-0.1% T) and blocked with 3% bovine serum albumin in TBS-T for 3 hours at room temperature (200 μL per well). AR peptide standard (Creative Biomart; Cat. No. AR-9788H) and samples were diluted in 1% bovine serum albumin (BSA)/TBS-0.05% T. After the blocking period, plates were washed as above, and 50 μL of standard and samples were added. Plates were incubated overnight at 4° C. with shaking. Following the incubation period, the plates were allowed to acclimate to room temperature with shaking for 1 hour. The detection antibody (anti-AR antibody, clone EPR1535 (abcam; ab194196)), conjugated to horse radish peroxidase (HRP), was diluted 1:15000 in 1% BSA/TBS-0.05% T and co-incubated with the samples by adding 50 μL to each well and shaking for 2 hours at room temperature. Plates were washed as above. Chemiluminescent substrate (ELISABright; Advansta; K-16025) was added to the plates (100 μL per well).
In vivo degradation of endogenous AR was evaluated for 95 compounds in murine levator ani/bulbocavernosus (LABC) muscle using a 30 mg/kg PO dose (see Example 1). The observed AR degradation for these 95 compounds ranged from 0-85% of AR in mouse LABC.

## CC(C)N(CC1CCN(c2ncc(C(=O)N[C@H]3C(C)(C)[C@H](Oc4ccc(C#N)c(Cl)c4)C3(C)C)cn2)CC1)[C@H]1C[C@H](Oc2ccc3c(c2)C(=O)N(C2CCC(=O)NC2=O)C3=O)C1 (stereo partly drawn) [Compound A, N-((1r,3r)-3-(3-chloro-4-cyanophenoxy)-2,2,4,4-tetramethylcyclobutyl)-2-(4-((((1r,3r)-3-((2-(2,6-dioxopiperidin-3-yl)-1,3-dioxoisoindolin-5-yl)oxy)cyclobutyl)(isopropyl)amino)methyl)piperidin-1-yl)pyrimidine-5-carboxamide]
30 mg/kg, once per day (QD) for 3 days
  time for AR levels in LABC muscle to return to normal post administration: about 3 days
Mouse LABC muscle
  time for AR to return to basal levels in LABC muscle: 48 to 72 h
Mouse muscle
  dose that achieves AR degradation of ~50%: About 10 mg/kg
